Nine molecules from ChEMBL document CHEMBL5528028, “Discovery of benzopyridone cyanoacetates as new type of potential broad-spectrum antibacterial candidates” (Eur J Med Chem, 2024) can be followed below.

≈ marks a conversion by molar mass, not a printed value.

Common to all, as to format: functional
In experiment [1] the test system is Staphylococcus aureus. In words: Antibacterial activity against methicillin-resistant Staphylococcus aureus assessed growth inhibition by micro broth dilution method. For orientation: Broth dilution looks for growth in wells or tubes with falling amounts of substance.
The subject of experiment [2] is Staphylococcus aureus. Kind of experiment: Antibacterial activity against Staphylococcus aureus assessed growth inhibition by micro broth dilution method.
Experiment [3] has as its system Staphylococcus aureus. In words: Antibacterial activity against Staphylococcus aureus ATCC 25923 assessed growth inhibition by micro broth dilution method.
For experiment [4], the system named is Staphylococcus aureus. Kind of experiment: Antibacterial activity against Staphylococcus aureus ATCC 29213 assessed growth inhibition by micro broth dilution method.
The subject of experiment [5] is Enterococcus faecalis. Kind of experiment: Antibacterial activity against Enterococcus faecalis assessed growth inhibition by micro broth dilution method.
Experiment [6] relates to Klebsiella pneumoniae. In words: Antibacterial activity against Klebsiella pneumonia assessed growth inhibition by micro broth dilution method.
Experiment [7] concerns Escherichia coli. Kind of experiment: Antibacterial activity against Escherichia coli assessed growth inhibition by micro broth dilution method.
Experiment [8] deals with Escherichia coli. In words: Antibacterial activity against Escherichia coli ATCC 25922 assessed growth inhibition by micro broth dilution method.
The test system of experiment [9] is Pseudomonas aeruginosa. Kind of experiment: Antibacterial activity against Pseudomonas aeruginosa assessed growth inhibition by micro broth dilution method.
The test system of experiment [10] is Pseudomonas aeruginosa. Kind of experiment: Antibacterial activity against Pseudomonas aeruginosa ATCC 27853 assessed growth inhibition by micro broth dilution method.
Experiment [11] deals with Acinetobacter baumannii. Kind of experiment: Antibacterial activity against Acinetobacter baumannii assessed growth inhibition by micro broth dilution method.

As a reminder, the MIC is the lowest concentration that inhibits growth of the organism.

For the molecule `CCCn1cc(C(=O)OCC)c(=O)c2cc(F)c(F)cc21`, the MIC was determined as 256 mg/L (≈ 867 µM) in [1]; 64 mg/L (≈ 217 µM) in experiment [2]; 256 mg/L (≈ 867 µM) in experiment [3]; 128 mg/L (≈ 433 µM) in [4]; 256 mg/L (≈ 867 µM) in experiment [5]; 64 mg/L (≈ 217 µM) in experiment [6]. The MIC in experiment [7] came out at 32 mg/L (≈ 108 µM); in [8] it was 128 mg/L (≈ 433 µM); in experiment [9] it was 128 mg/L (≈ 433 µM); in [10], 256 mg/L (≈ 867 µM); in [11], 256 mg/L (≈ 867 µM).
In the case of `CCOC(=O)c1cn(Cc2ccc(C)cc2)c2cc([C-](C#N)C(=O)OCC)c(F)cc2c1=O.[Na+]` (centres undefined), the MIC in experiment [1] amounted to 64 mg/L; in experiment [2] it was 32 mg/L; in [3] it was 0.5 mg/L; in [4], 0.5 mg/L; in experiment [5] it was 16 mg/L; in [6] it was 2 mg/L. For the same molecule, the MIC in [7] amounted to 1 mg/L; in experiment [8], 1 mg/L; in experiment [9], 8 mg/L; in experiment [10], 1 mg/L; in [11], 2 mg/L.
For `CCOC(=O)c1cn(Cc2cnc(Cl)s2)c2cc([C-](C#N)C(=O)OCC)c(F)cc2c1=O.[Na+]` (centres undefined), the MIC was 4 mg/L in [1]; 32 mg/L in experiment [2]; 4 mg/L in experiment [3]; 8 mg/L in experiment [4]; 4 mg/L in experiment [5]; 32 mg/L in experiment [6]. In addition, the MIC in experiment [7] was found to be 4 mg/L; in [8], 8 mg/L; in [9], 64 mg/L; in experiment [10] it was 2 mg/L; in [11], 16 mg/L.
`CCOC(=O)c1cn(CC2CCCCC2)c2cc(C(C#N)C(=O)OCC)c(F)cc2c1=O` (centres undefined): the MIC in [1] was 64 mg/L (≈ 145 µM); in experiment [2], 64 mg/L (≈ 145 µM); in experiment [3], 1 mg/L (≈ 2.26 µM); in [4], 4 mg/L (≈ 9.04 µM); in [5] it was 16 mg/L (≈ 36.2 µM); in experiment [6] it was 4 mg/L (≈ 9.04 µM). The MIC is 4 mg/L (≈ 9.04 µM) in [7]; 0.5 mg/L (≈ 1.13 µM) in experiment [8]; 1 mg/L (≈ 2.26 µM) in experiment [9]; 1 mg/L (≈ 2.26 µM) in experiment [10]; 4 mg/L (≈ 9.04 µM) in experiment [11].
For `CCOC(=O)c1cn(CC2CC2)c2cc(F)c(F)cc2c1=O`, the MIC in [1] was found to be 256 mg/L (≈ 833 µM); in experiment [2], 128 mg/L (≈ 417 µM); in [3], 128 mg/L (≈ 417 µM); in experiment [4], 128 mg/L (≈ 417 µM); in experiment [5], 128 mg/L (≈ 417 µM); in experiment [6] it was 128 mg/L (≈ 417 µM). In addition, the MIC in experiment [7] is 16 mg/L (≈ 52.1 µM); in [8], 64 mg/L (≈ 208 µM); in [9], 32 mg/L (≈ 104 µM); in experiment [10], 256 mg/L (≈ 833 µM); in experiment [11], 256 mg/L (≈ 833 µM).
Consider `CCCCCCCCn1cc(C(=O)O)c(=O)c2cc(F)c(C(C#N)C(=O)OCC)cc21` (centres undefined), for which the MIC in experiment [1] amounted to 8 mg/L (≈ 18.6 µM); in [2], 4 mg/L (≈ 9.29 µM); in experiment [3], 1 mg/L (≈ 2.32 µM); in [4] it was 4 mg/L (≈ 9.29 µM); in experiment [5] it was 16 mg/L (≈ 37.2 µM); in experiment [6], 0.25 mg/L (≈ 0.581 µM). In addition, the MIC in experiment [7] was found to be 32 mg/L (≈ 74.3 µM); in experiment [8], 0.5 mg/L (≈ 1.16 µM); in experiment [9], 4 mg/L (≈ 9.29 µM); in [10] it was 1 mg/L (≈ 2.32 µM); in experiment [11], 1 mg/L (≈ 2.32 µM).
On to `CCCn1cc(C(=O)OCC)c(=O)c2cc(F)c([C-](C#N)C(=O)OCC)cc21.[Na+]` (centres undefined), for which the MIC in experiment [1] was determined as 64 mg/L; in experiment [2] it was 128 mg/L; in [3] it was 2 mg/L; in experiment [4] it was 16 mg/L; in [5] it was 16 mg/L; in [6] it was 16 mg/L. Further, the MIC is 16 mg/L in experiment [7]; 4 mg/L in experiment [8]; 8 mg/L in [9]; 8 mg/L in experiment [10]; 16 mg/L in experiment [11].
Consider `CCOC(=O)c1cn(CCN2CCOCC2)c2cc([C-](C#N)C(=O)OCC)c(F)cc2c1=O.[Na+]` (centres undefined), for which the MIC in experiment [1], in experiment [2], in experiment [3], in experiment [4], in [5] and in experiment [6] was 256 mg/L in each case. In addition, the MIC in experiment [7], in [8], in experiment [9], in experiment [10] and in experiment [11] was 256 mg/L throughout.
`CCOC(=O)c1cn(Cc2ccc(Cl)c(Cl)c2)c2cc(C(C#N)C(=O)OCC)c(F)cc2c1=O` (centres undefined): the minimal inhibitory concentration (MIC) is 8 mg/L (≈ 15.8 µM) in experiment [1]; 4 mg/L (≈ 7.92 µM) in experiment [2]; 1 mg/L (≈ 1.98 µM) in experiment [3]; 0.25 mg/L (≈ 0.495 µM) in experiment [4]; 16 mg/L (≈ 31.7 µM) in experiment [5]; 1 mg/L (≈ 1.98 µM) in experiment [6]. For the same molecule, the MIC in [7] came to 8 mg/L (≈ 15.8 µM); in experiment [8], 4 mg/L (≈ 7.92 µM); in experiment [9] it was 0.5 mg/L (≈ 0.989 µM); in [10] it was 2 mg/L (≈ 3.96 µM); in [11], 2 mg/L (≈ 3.96 µM).
